Here are results for 89 compounds from a melting point compilation (Tetko et al.; mined from patent text by program, amines drawn as free bases though some values may be those of a salt).

Usually melting point stands for the temperature of the solid-liquid transition. In turn, `COc1cccc(Oc2ccc(NC(C)=O)cc2)c1` returned a melting point of 103 to 105 °C.

With `CC(=O)C(=Cc1cccc([N+](=O)[O-])c1)C(=O)CCCCCCCCCCBr`, the melting point lay within 64 to 67 °C. As for `CCCCCCCCCCCCCCCCCCOP(=O)(Cc1cc(Cl)c(O)c(C(C)(C)C)c1)OCCCCCCCCCCCCCCCCCC`, the melting point is 55 °C. Take `CC(C)(C)OC(=O)NCCc1ccc(O)cc1`: the melting point lay within 61 to 62 °C. As for `N#CC(=NO)c1cccs1`, the melting point is 103 to 104 °C. The value for `CC(=O)Nc1nc(Cl)c2c(ncn2COC(COC(C)C)COC(C)C)n1` was 73 to 75 °C; that for `CC(C)C(C(=O)O)N1C(=O)C2C3C=CC(CC3)C2C1=O` (centres undefined) was 156 °C. On to `CCN1CCC(n2nc(-c3c(-c4ccccc4)nn4ccccc34)ccc2=O)CC1`, for which the melting point lay within 134 to 135 °C. For the compound `Cc1ccc(F)cc1C(=O)Nc1ccc(C(=O)N2Cc3cccn3-c3ccccc32)cn1`, the melting point was in the range of 190 to 196 °C. For `C#Cc1cn(C2CC(O)C(CO)O2)c(=O)[nH]c1=O` (centres undefined), the melting point was found to be 175 °C. With `CN(C)CCNC(=O)C(=O)c1ccc(OCCOc2ccc3ccccc3c2)cc1`, the melting point was 102 to 104 °C. As for `CCCCCCc1ccc2c3ccc(C=O)cc3n(C)c2c1`, the figure is 55 to 56 °C; as for `CC(C)(C)OC(=O)[C@@H]1CCCN1C(=O)C1CCCC1SC(=O)c1ccccc1` (some centres undefined), 68 to 70 °C; as for `CN(C)C1CCC2(CC1)Nc1cc(Cl)c(S(N)(=O)=O)cc1S(=O)(=O)N2` (centres undefined), 255 °C. The value for `C=C(C)c1ccc(C(F)(F)C(F)(F)c2ccccc2)cc1` was 97 to 104 °C; that for `COC(=O)C(O)(c1cccc(C(F)(F)F)c1)c1cccc(C(F)(F)F)c1` was 69 to 70 °C. Consider `O=C1N(CCCCN2CCN(c3n[nH]c4cc(F)ccc34)CC2)CSC12CCCC2`, for which the melting point was 132 to 134 °C. The compound `O=C(O)C1CCCN1C(=O)c1ccc(-c2ccccc2)cc1` (centres undefined) displayed a melting point of 160 °C. As for `O=c1oc(-c2snnc2C2CC2)nc2ccccc12`, the figure is 164 to 165 °C; as for `COC(=O)c1cccc(Sc2ccccc2)c1S(C)(=O)=O`, 151 °C. For the compound `O=C(Nc1cccc(S(=O)(=O)NCc2ccccn2)c1)c1cnn2c(C(F)F)cc(-c3ccc(C(F)(F)F)cc3)nc12`, the melting point came to 208 °C. The compound `ONCc1ccccc1Cl` came in with a melting point of 71 to 73 °C. Take `N#Cc1cccnc1N1CCN(CC(=O)Nc2ccc(F)cc2)CC1`: the melting point fell in the range of 98 to 100 °C.

`CC(=O)c1cccc2c1ccn2C` gave a melting point of 63 to 64 °C.

`C#CCC1(O)CCCCC1`: the melting point was 53 to 54 °C.

Regarding `O=C(NCCc1ccc(O)cc1)c1ccc2n1Cc1ccccc1N(C(=O)COc1ccc(Cl)cc1)C2`, the melting point lay in the range of 206 to 207 °C. Consider `Cc1ccc(C(=O)NCC(O)CO)cc1-n1c(C)cc(OCc2ccccc2CNC(=O)Nc2cc(C(C)(C)C)nn2-c2ccc(Cl)c(O)c2)c(Cl)c1=O` (centres undefined), for which the melting point is 169 to 171 °C.

With `CCOc1ccc(F)cc1C(=O)c1sc2ncc(C#N)cc2c1N`, the melting point was determined as 196 °C. Compound `ClCC1OCC(OCc2ccccc2)CO1` (centres undefined) displayed a melting point of 38 to 39 °C. Take `CCC(=O)NC1CCc2ccccc2C1` (centres undefined): the melting point was 99 to 101 °C. The value for `CCOC(Cc1ccc(OCCN2C(=O)COc3ccccc32)cc1)C(=O)O` (centres undefined) was 90 to 93 °C; that for `COc1ccc(Nc2ccc(Nc3ccnc4cc(-c5cccc([N+](=O)[O-])c5)sc34)cc2)cc1` was 175 to 184 °C; that for `Clc1cc(-c2ccccc2)nc(Cl)n1` was 80 to 85 °C.

`c1cnc2c(c1)-c1ncccc1C2(Cc1ccncc1)Cc1ccncc1` yielded a melting point of 133 to 137 °C. For `CCOC(=O)C(=O)c1c[nH]c2c1ccc1c3ccccc3[nH]c12`, the melting point is > 295 °C. In turn, `COc1ccc(/C=C(/C(=O)OC(C)(C)C)C(=O)c2ccccc2O)cc1` displayed a melting point of 129 to 132 °C. For `CCOC(=O)C1CCC2(NCCc3cc(OC)c(OC)cc32)C(C2c3cc(OC)c(OC)cc3CCN2CC)C1` (centres undefined), the melting point was 140 to 142 °C. The compound `O=C(c1ccccc1SSc1ccccc1C(=O)N1CCSCC1)N1CCSCC1` showed a melting point of 90 to 92 °C.

Compound `CCC(=O)S(=O)(=O)c1ccc(C=C(C)c2ccc3c(c2)C(C)(C)CCC3(C)C)cc1` showed a melting point of 140 to 141 °C. The value for `CCN(CC)CCNC(=O)c1cccc2c(=O)c3c(I)cccc3[nH]c12` was 144 to 146 °C. On to `CCCCC[C@H]1CC[C@H](COc2ccc(C(=O)C(F)(F)F)cc2)CC1`, for which the melting point came to 60 °C. For the compound `Cc1c(-c2ccnc(-c3ccc4c(n3)CCCC4)n2)ccc2ccccc12`, the melting point lay within 156 to 158 °C. The value for `O=c1cc(-c2nc3ccccc3[nH]2)oc2ccc(Cl)cc12` was 248 to 250 °C. In turn, `O=C1CNc2cc(Br)c(F)cc2N1` came in with a melting point of 214 to 216 °C. Compound `COC(=O)c1cncnc1NCc1ccncc1` had a melting point of 111 to 112 °C. Regarding `CCCCCCCCc1ccc(CCC(N)(CO)CO)cc1`, the melting point lay in the range of 103 to 105 °C.

The compound `CCN1C(=O)C(=CC=C2C=C(c3ccc(OC)cc3)C=C3N2c2ccccc2C3(C)C)SC1=S` had a melting point of 210 to 211 °C. `COc1nccc(Oc2ccc(NC(=O)c3cc(F)cc(N4CCOCC4)c3)c3ccccc23)n1` yielded a melting point of 216 to 217 °C. On to `CCc1ccc(Nc2nnc(Cc3ccnc(O)c3)c3ccccc23)cc1Br`, for which the melting point lay within 133 to 135 °C. Take `COc1cc(Oc2ccc(C(=O)N(C3CCCCC3)C3CCCC3)cc2)cc(OC)c1OC`: the melting point was found to be 166 °C.

As to `O=C(OCCN1CCNC1=O)c1ccccc1`, the melting point lay within 130 to 132 °C. The compound `O=c1cc2c(nn1Cc1ccc(Cl)cc1)-c1cc(Br)sc1SCC2` came in with a melting point of 152 to 154 °C. With `Cc1cc(C2=C(C=CC3CC(O)CC(=O)O3)C(C)(C)CC(OC(=O)Nc3ccccc3)C2)ccc1F` (centres undefined), the melting point fell in the range of 73 to 75 °C. The value for `O=c1oc2ccccc2cc1S(=O)(=O)Cc1ccc(Cl)cc1` was 195 to 196 °C. `CCOC(=O)n1c(=S)[nH]c2ccc(Br)cc2c1=O` yielded a melting point of 214 °C. As to `Cc1cccc(-c2ccc(C(=O)Nc3ccc4cc(CN5CCCC5)cnc4c3C)cc2)c1`, the melting point fell in the range of 151 to 152 °C. The value for `CCOC(=O)C1=C(C)Nc2nc(N)nc(N)c2C1c1ccc(Cl)c(Cl)c1` (centres undefined) was 244 °C. The compound `COC(=O)C=C1CCC(c2ccc(O)cc2)CC1` (centres undefined) came in with a melting point of 151 to 152 °C. Compound `COC(=O)c1ccc2c(c1)SCCC2O` (centres undefined) came in with a melting point of 79 to 81 °C. Compound `CCN(C)C(=O)C1=CC(C)(C)Oc2ccc([N+](=O)[O-])cc21` came in with a melting point of 121 to 124 °C.

In the case of `COc1ccc(CONS(=O)(=O)c2ccc(C)cc2)cc1`, the melting point was in the range of 109 to 111 °C.

For the compound `O=C1c2cc(O)ccc2OCC1Cc1ccncc1` (centres undefined), the melting point was in the range of 188 to 190 °C. The value for `COc1ccc2c(=O)cc[nH]c2c1O` was 228 to 230 °C.

The compound `O=C(NN=Cc1ccc2ccccc2n1)c1ccccc1` gave a melting point of 171 °C. The value for `CS(=O)(=O)c1ccc(-n2cc(C(F)(F)F)nc2-c2ccc(-c3cscn3)cc2)cc1F` was 112 to 115 °C; that for `CCCCCCCCCCCCC1(CCCCCCCCCCCC)c2cc(Br)ccc2-c2ccc(Br)cc21` was 49 to 50 °C. As for `Cc1c(Cl)cc(C(C)(C)C)c(O)c1-c1nc2cc(C#N)ccc2[nH]1`, the figure is 258 °C; as for `CCCCc1nc2c(N)nc3ccccc3c2n1CCCCNS(=O)(=O)Cc1ccccc1`, 197 to 200 °C. In turn, `COc1cc2c(cc1F)CCN=C2C1(c2ccc(Cl)cc2Cl)CC1` had a melting point of 151 to 154 °C.

`CC(C)(C)OC(=O)NCC1CCn2c(cc3ccccc32)C1` (centres undefined) registered a melting point of 80 to 85 °C.

On to `Cc1c(CCBr)c2cccc3c2n1CCS3`, for which the melting point was found to be 94 °C.

`CCCCc1nc2c(N)nc3ccccc3c2n1CCOCCON=C(C)C`: the melting point is 116 to 118 °C. Compound `N#Cc1nn(-c2c(Cl)cc(C(F)(F)F)cc2Cl)c(N)c1-c1ccsc1C(F)(F)F` came in with a melting point of 162 °C. In turn, `CC(=Nc1ccc(NC(=O)[C@@H](N)CC(C)C)cc1)N(C)C` had a melting point of 106 to 107 °C. For the compound `CCOc1c(C(N)=O)n(-c2ccccc2)c2ccc(OC)cc12`, the melting point was 143 to 144 °C. Take `Cn1nc(-c2cccc(Cl)c2)cc1C(=O)O`: the melting point was 164 to 167 °C. Take `O=c1oc(-c2cccc(Cl)c2)cc(O)c1SCc1ccccc1`: the melting point lay in the range of 136 to 137 °C. As for `C#CC1(O)CCC2C3CCC4=CCCCC4C3C(=CF)CC21C` (centres undefined), the figure is 103 to 104 °C; as for `COc1ccc(Cc2nc3cccc(NCc4cccnc4)c3o2)cc1OC1CCCC1`, 90 to 92 °C. As for `NC(=O)c1cc2c(cc1OCC1CCCCC1)CCCCC2N` (centres undefined), the figure is 170 to 172 °C. Compound `CN(C)c1ccc2c(c1)C(=O)CC(c1ccc(O)cc1)=N2` registered a melting point of 321 to 323 °C. As to `Cc1cc(C)cc(-c2[nH]c3ccc(C(C)(C)C(=O)O)cc3c2CCN(CCCCc2ccc(NS(C)(=O)=O)cc2)C(=O)OCc2ccccc2)c1`, the melting point was > 102 °C. `O=C(O)C1CC=C(c2c(-c3ccccc3)[nH]c3ccccc23)CC1` (centres undefined) registered a melting point of 178 to 179 °C. Consider `COc1ccc(CBr)cc1[N+](=O)[O-]`, for which the melting point is 110 to 112 °C.

`COCC1CN(c2ccc(C3CCN(Cc4ccccc4)CC3)cc2)C(=O)O1` (racemic) registered a melting point of 175 to 177 °C. The value for `CC(=O)c1ccc(OCCCOc2cc(NC(=O)C(=O)O)c(C)cc2Br)c(CCC(F)(F)F)c1O` was 133 to 135 °C; that for `O=C(O)C1CCC2CCCCC2N1` (centres undefined) was 173 to 176 °C; that for `O=c1[nH]c2cc(Cl)ccc2n1C1CCN(C[C@H]2CO[C@@H](c3ccc(F)cc3)C2)CC1` (relative stereo) was 208 °C. On to `CCOC(=O)Nc1cc(C(=O)OC)c(O)c2ncc(Cc3ccc(F)cc3)cc12`, for which the melting point was in the range of 205 to 206 °C.
